PubChem BioAssay (NCI)
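Method: 48-hour compound exposure of cells in 96-well plates, five concentrations, linear interpolation of endpoints. The concentration for 50% growth inhibition is given as GI50. TGI: total growth inhibition.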

Columns and labels:
Experiment in all cases: NCI tumour cell line growth inhibition, 48 h
[1] = tested on: SK-OV-3 ovarian
[2] = tested on: SN12C renal
[3] = tested on: A549 NSCLC
[4] = tested on: EKVX NSCLC
[5] = tested on: UACC-257 melanoma
[6] = tested on: MALME-3M melanoma
[7] = tested on: NCI-H226 lung
[8] = tested on: MDA-MB-435
[9] = tested on: BT-549 breast
[10] = tested on: SK-MEL-5 melanoma
[11] = tested on: HOP-62 NSCLC
[12] = tested on: SR leukemia
[13] = tested on: SK-MEL-28 melanoma
[14] = tested on: U251 CNS
[15] = tested on: OVCAR-8 ovarian
[16] = tested on: HT29 colon
[17] = tested on: SF-295 CNS
[18] = tested on: COLO 205 colon
[19] = tested on: CCRF-CEM leukemia
[20] = tested on: OVCAR-5 ovarian
[21] = tested on: HCT-15 colon
[22] = tested on: IGROV1 ovarian
[23] = tested on: RXF 393 renal
[24] = tested on: T-47D breast
[25] = tested on: MDA-MB-231 breast
[26] = tested on: UACC-62 melanoma
[27] = tested on: MDA-N
[28] = tested on: NCI-H460 lung
[29] = tested on: RPMI-8226 leukemia
[30] = tested on: OVCAR-3 ovarian
[31] = tested on: OVCAR-4 ovarian
[32] = tested on: LOX IMVI melanoma
[33] = tested on: A498 renal
[34] = tested on: HOP-92 NSCLC
[35] = tested on: 786-0 renal
[36] = tested on: NCI-H522 lung
[37] = tested on: TK-10 renal
[38] = tested on: HL-60(TB) leukemia
[39] = tested on: PC-3 prostate
[40] = tested on: DU-145 prostate
[41] = tested on: SW-620 colon
[42] = tested on: SNB-75 CNS
[43] = tested on: HCT-116 colon
[44] = tested on: SK-MEL-2 melanoma
[45] = tested on: NCI/ADR-RES ovarian
[46] = tested on: MOLT-4 leukemia
[47] = tested on: HCC-2998 colon
[48] = tested on: CAKI-1 renal
[49] = tested on: NCI-H23 lung
[50] = tested on: KM12 colon
[51] = tested on: SF-539 CNS
[52] = tested on: ACHN renal
[53] = tested on: HS 578T breast
[54] = tested on: UO-31 renal
[55] = tested on: SF-268 CNS
[56] = tested on: MCF7 breast
[57] = tested on: M14 melanoma
[58] = tested on: SNB-19 CNS
[59] = tested on: K-562 leukemia

## CC12Nc3c(Cl)cc(Cl)cc3N1C(=O)c1ccccc12 (configuration not stated)
[1]
  TGI: > 100 µM
[2]
  TGI: > 100 µM
[3]
  TGI: > 100 µM
[4]
  TGI: > 100 µM
[5]
  TGI: > 100 µM
[6]
  TGI: > 100 µM
[7]
  TGI: > 100 µM
[8]
  TGI: > 100 µM
[9]
  TGI: > 100 µM
[10]
  TGI: > 100 µM
[11]
  TGI: > 100 µM
[12]
  TGI: > 100 µM
[13]
  TGI: > 100 µM
[14]
  TGI: > 100 µM
[15]
  TGI: > 100 µM
[16]
  TGI: > 100 µM
[17]
  TGI: > 100 µM
[18]
  TGI: > 100 µM
[19]
  TGI: > 100 µM
[20]
  TGI: > 100 µM
[21]
  TGI: > 100 µM
[22]
  TGI: > 100 µM
[23]
  TGI: > 100 µM
[24]
  TGI: > 100 µM
[25]
  TGI: > 100 µM
[26]
  TGI: > 100 µM
[27]
  TGI: > 100 µM
[28]
  TGI: > 100 µM
[29]
  TGI: > 100 µM
[30]
  TGI: > 100 µM
[31]
  TGI: > 100 µM
[32]
  TGI: > 100 µM
[33]
  TGI: 99.9 µM
[34]
  TGI: 82.1 µM
[35]
  TGI: > 100 µM
[36]
  TGI: > 100 µM
[37]
  TGI: > 100 µM
[38]
  TGI: > 100 µM
[39]
  TGI: > 100 µM
[40]
  TGI: > 100 µM
[41]
  TGI: > 100 µM
[42]
  TGI: > 100 µM
[43]
  TGI: > 100 µM
[44]
  TGI: > 100 µM
[45]
  TGI: > 100 µM
[46]
  TGI: > 100 µM
[47]
  TGI: > 100 µM
[48]
  TGI: > 100 µM
[49]
  TGI: > 100 µM
[50]
  TGI: > 100 µM
[51]
  TGI: > 100 µM
[52]
  TGI: > 100 µM
[53]
  TGI: > 100 µM
[54]
  TGI: > 100 µM
[55]
  TGI: > 100 µM
[56]
  TGI: > 100 µM

## CCOC(=O)CC[C@H](N)C(=O)N[C@@H](Cc1ccc(N(CCCl)CCCl)cc1)C(=O)OCC
[1]
  TGI: 4.99 µM
[2]
  TGI: 9.22 µM
[3]
  TGI: > 48.9 µM
[4]
  TGI: 6.11 µM
[5]
  TGI: 5.09 µM
[6]
  TGI: 0.823 µM
[7]
  TGI: 28.8 µM
[8]
  TGI: 2.83 µM
[9]
  TGI: 22.3 µM
[10]
  TGI: 3.13 µM
[11]
  TGI: 9.94 µM
[12]
  TGI: > 42.2 µM
[13]
  TGI: 2.38 µM
[14]
  TGI: 7.39 µM
[15]
  GI50: 0.564 µM
  TGI: 1.99 µM
[16]
  TGI: 4.19 µM
[17]
  TGI: 14.8 µM
[18]
  TGI: 2.3 µM
[19]
  TGI: 4.5 µM
[20]
  TGI: 6.78 µM
[21]
  TGI: 3.86 µM
[22]
  TGI: 4.75 µM
[23]
  TGI: 2.14 µM
[57]
  TGI: 1.59 µM
[58]
  TGI: 18.1 µM
[24]
  TGI: 8.49 µM
[25]
  TGI: 4.41 µM
[26]
  TGI: 1.84 µM
[27]
  TGI: 2.57 µM
[28]
  TGI: 2.48 µM
[29]
  TGI: 28.4 µM
[30]
  TGI: 1.82 µM
[31]
  TGI: 1.41 µM
[32]
  TGI: 2.94 µM
[59]
  TGI: > 33 µM
[33]
  TGI: 42 µM
[34]
  TGI: 1.62 µM
[35]
  TGI: 2.51 µM
[36]
  TGI: 2.54 µM
[37]
  TGI: 4.26 µM
[38]
  TGI: 1.33 µM
[39]
  TGI: 7.46 µM
[40]
  TGI: 5.56 µM
[41]
  TGI: 5.87 µM
[42]
  TGI: 4.44 µM
[43]
  TGI: 4.09 µM
[44]
  TGI: 5.28 µM
[45]
  GI50: 3.7 µM
  TGI: 21.1 µM
[46]
  TGI: 3.61 µM
[47]
  TGI: 2.59 µM
[48]
  TGI: 4.39 µM
[49]
  TGI: 1.35 µM
[50]
  TGI: 11.6 µM
[51]
  TGI: 2.8 µM
[52]
  TGI: 1.72 µM
[53]
  TGI: 4.92 µM
[54]
  TGI: 3.44 µM
[55]
  TGI: 7.07 µM
[56]
  TGI: 15.5 µM
